# Results taken from paper PMC2409523, “Hormonal impact of the 17α-hydroxylase/C17,20-lyase inhibitor abiraterone acetate (CB7630) in patients with prostate cancer” (British Journal of Cancer, 2004).
# Several values for one entry are separate records, joined by “and”; a condition that tells them apart may be missing. Identical values can stand only once.
# Experiments:
# [1] = set-up: method as in Barrie et al, 1994; Dowsett et al, 1988; settings: rodent model, intraperitoneal administration; ref Barrie et al, 1994; Dowsett et al, 1988; cited from earlier work
# [2] = test system: cortisol synthesis; assay: Short Synacthen test in Study C; type: in vivo, human
# Experimental: The schedule sampling differed slightly with samples removed at 0930 and 1730 on the day of treatment and thereafter in the morning on Days 2, 3, 4, 7, 8, 9, 10, 11, 14, 21 and 28. In Study C, a short Synacthen test was also performed prior to therapy and again around Day 11.
# [3] = test system: testosterone synthesis; assay: Study B: single dose study in noncastrate males with prostate cancer, serum hormone levels; type: in vivo, human
# Experimental: This was a single dose study in noncastrate males (testosterone level ⩾9.0 nmol l^−1) to determine the dose of abiraterone acetate that was sufficient to cause suppression of testosterone synthesis to castrate levels (⩽2.0 nmol l^−1).
# This was a single-centre, open-label, phase one, single-dose study in which sequential cohorts of three noncastrate patients were to be treated at four dose levels: 200, 500, 650 and 800 mg. The starting dose of 200 mg was chosen when the results of study A were available.
# All patients were required to have a normal testosterone level prior to study entry (i.e. ⩾9.0 nmol l^−1) as well as normal gonadotrophin levels (Luteinising Hormone (LH) ⩽13 IU l^−1).
# Serum samples for endocrine analysis were obtained at 0, 2, 4, 8 and 24 h on a single day in the week prior to treatment commencement and then on Days 1, 2, 3, 4 and 7. As the duration of testosterone suppression was longer than originally anticipated, additional samples were added on Days 10, 14 and 21. The serum samples were analysed for testosterone, cortisol, 17 α-hydroxyprogesterone (17HP), androstenedione, LH and follicle-stimulating hormone (FSH) using commercially available kits. However, the DPC Coat-a-count kit for testosterone was sensitised using a larger volume of sample/standard and extension of the standard curve. […] All endocrine analyses were conducted by radioimmunoassay except for LH and FSH, which were by enzyme immunoassay.
# [4] = Safety and tolerability in the three phase one trials; type: in vivo, human
# Experimental: Prior to the first dose of therapy a complete history, physical examination and assessment of performance status was performed on all patients. Full-blood count, electrolytes and creatinine, liver function, urinanalysis, electrocardiograph and chest X-ray were obtained from all patients. The ECG was repeated 6 h after dosing. On the day of therapy heart rate, blood pressure and temperature were recorded every 4 h and then daily at the time of blood sampling. Thereafter, full-blood count, electrolytes, creatinine and liver function were re-evaluated on Days 2 and 7. Toxicity was recorded using the NCI-CTG Expanded Common Toxicity Criteria V1.
# [5] = test system: testosterone synthesis; assay: Study C: multiple dose study (Days 1–12) in noncastrate males with prostate cancer, serum hormone levels; type: in vivo, human
# Experimental: If this level of suppression was achieved, then it was planned to escalate the doses still higher to establish whether further suppression of testosterone was possible. […] This was a three-centre, open-label, phase one, multidose study in which sequential cohorts of three noncastrate patients were to receive treatment with abiraterone daily for 12 days. […] The starting dose of 500 mg was based upon the data from the single-dose studies. It was planned that a dose level would be expanded to six patients if any patient experienced toxicity ⩾ Grade III or if there was a significant suppression of serum cortisol in one patient (defined as per Study B above). All patients were followed for 28 days for any sign of toxicity. […] The schedule sampling differed slightly with samples removed at 0930 and 1730 on the day of treatment and thereafter in the morning on Days 2, 3, 4, 7, 8, 9, 10, 11, 14, 21 and 28. In Study C, a short […] test was also performed prior to therapy and again around Day 11.
# [6] = test system: 17α hydroxylation; set-up: method as in Barrie et al, 1994; Dowsett et al, 1988; settings: preclinical studies, correlative evidence of inhibition of 17α hydroxylation; ref Barrie et al, 1994; Dowsett et al, 1988; cited from earlier work
# [7] = 500 mg daily Days 1–12, noncastrate patients
compound,measurement,setting,value
CC(=O)O[C@H]1CC[C@@]2(C)C(=CC[C@@H]3[C@@H]2CC[C@]2(C)C(c4cccnc4)=CC[C@@H]32)C1 [abiraterone acetate],deacetylation,[1],rapid deacetylation
same,response to Synacthen,"[2]; 500 mg daily, all three patients, by Day 11",abnormal response
same,mean change in cortisol in response to Synacthen,"[2]; 500 mg daily, by Day 11, baseline 294.3 nmol l^−1",42 nmol/L
same,mean change in cortisol in response to Synacthen (percent),"[2]; 500 mg daily, by Day 11, baseline +77%",+10%
same,cortisol response to the short Synacthen test,"[2]; 800 mg daily, all three patients, Day 11",abnormal
same,mean change in cortisol levels in response to Synacthen,"[2]; 800 mg daily, by Day 11, baseline 385 nmol l^−1",65.3 nmol/L
same,mean change in cortisol levels in response to Synacthen (percent),"[2]; 800 mg daily, by Day 11, baseline 120%",23%
same,LH levels,"[3]; single oral dose 200 mg, noncastrate",did not alter
same,level of testosterone relative to baseline,"[3]; single oral dose 500 mg, noncastrate patients, Day 3, each case",less than 50%
same,change in cortisol level,"[3]; single oral dose, noncastrate patients",No change
same,grade three or four toxic events,[4]; all three trials,no grade three or four toxic events
same,resting heart rate or blood pressure,[4]; all three trials,No alteration
same,serious adverse events,[4]; all three trials,no serious adverse events attributable to treatment
same,tolerability,[4]; all three trials,very well tolerated
same,haematologic or biochemical effects,[4]; any dose level or schedule evaluated,No haematologic or biochemical effects
same,systemic effects reported by individual patients,[4]; no relation to dose or schedule apparent,"Headache, hot flushes, a mild increase in abdominal and testicular pain, and a transient depression in mood (all grade II)"
same,testosterone level reached,"[5]; 500 mg daily Days 1–12, all three noncastrate patients",≤ 2.0 nmol/L
same,duration of substantial testosterone suppression,[5]; [7],up to 9 days
same,serum cortisol levels,[5]; [7],remained within normal limits
same,time of maximal testosterone suppression,[5]; [7],1 to 3 days
same,target testosterone level of ⩽0.7 nmol l^−1,"[5]; 500 mg daily Days 1–12, three noncastrate patients",did not reach the target level
same,day on which target testosterone suppression (⩽0.7 nmol l^−1) was obtained,"[5]; 800 mg daily Days 1–12, first patient",1 days
same,testosterone level,"[5]; 800 mg daily, final patient, by Day 2",1.7 nmol/L
same,rise in LH,"[5]; 800 mg daily, final patient, from Day 3",two-fold rise
same,testosterone level,"[5]; 800 mg daily, final patient, from Day 4",> 2.0 nmol/L
same,testosterone levels for the duration of treatment,"[5]; 800 mg daily, first patient",≤ 2.0 nmol/L
same,increase in LH,"[5]; 800 mg daily, first patient, from Day 3",three-fold increase
same,duration of target testosterone suppression,"[5]; 800 mg daily, first patient, then reversed with rising LH",3 days
same,day on which target testosterone suppression (⩽0.7 nmol l^−1) was reached,"[5]; 800 mg daily, second patient",4 days
same,testosterone level,"[5]; 800 mg daily, second patient, Day 7, otherwise below target level",0.77 nmol/L
same,increase of Luteinising Hormone (LH) levels,"[5]; 800 mg days 1–12, two out of three patients, overcame suppression within 3 days",two- to three-fold
same,effect on FSH levels,"[5]; 800 mg, repeat dose",no effect
same,fall of evening cortisol from baseline evening cortisol,"[5]; multidose study, evening of Day 1, three patients",60% and 71% and 69%
same,dose required to maintain testosterone suppression to target levels,"[5]; repeat dose studies, noncastrate males",at least 800 mg
same,weight of the ventral prostate,[6],reduced weight of the ventral prostate
